Measurements as given in US20260209208A1, “PHENYL-PYRAZOLE CARBOXAMIDE COMPOUNDS” (Acrivon Therapeutics, Inc., priority 2022, published 2026).

Assays:
[1] = target: T1, recombinant human PMYT-1 (Myt1 kinase) (Homo sapiens, UniProt Q99640); assay: LanthaScreen Europium (Eu) Kinase Binding Assay for Myt1 kinase; settings: TR-FRET tracer 178 displacement, GST-tagged full length PMYT-1, 60 min, room temperature; mean IC50; read-out: LANTHA Kinase Binding for PMyt1
T1 construct: full length PMYT-1 was expressed by baculovirus in insect cells using a N-terminal GST tag; purchased Invitrogen A30984; host or cells: insect cells (baculovirus)
T1 sequence (Q99640 1-499): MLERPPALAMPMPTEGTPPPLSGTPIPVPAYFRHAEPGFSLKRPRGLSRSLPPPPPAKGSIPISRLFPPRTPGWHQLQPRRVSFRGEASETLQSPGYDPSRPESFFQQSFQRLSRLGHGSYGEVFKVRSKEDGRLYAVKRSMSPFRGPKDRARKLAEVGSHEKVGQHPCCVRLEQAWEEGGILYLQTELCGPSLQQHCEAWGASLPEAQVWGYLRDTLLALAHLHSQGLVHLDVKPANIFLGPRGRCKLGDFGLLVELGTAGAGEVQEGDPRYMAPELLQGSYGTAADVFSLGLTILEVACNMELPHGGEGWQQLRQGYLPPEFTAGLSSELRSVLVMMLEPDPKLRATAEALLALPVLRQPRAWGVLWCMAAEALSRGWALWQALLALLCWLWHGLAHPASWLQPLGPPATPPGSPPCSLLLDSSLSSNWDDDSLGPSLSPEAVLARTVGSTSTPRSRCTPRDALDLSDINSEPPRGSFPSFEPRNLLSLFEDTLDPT
Description: We used a LanthaScreen Europium (Eu) Kinase Binding Assay to determine the binding of provided compounds to Myt1 kinase. The assay utilizes an Alexa Fluor 647-labeled ATP competitive kinase tracer that binds to the ATP binding site of a GST-tagged Myt1 kinase, while a europium (Eu) labeled antibody binds to the GST tag. The proximity of fluorescently labeled kinase tracer and europium (Eu) donor fluorophore antibody leads to fluorescence resonance energy transfer (FRET) to the fluorescence label (acceptor) upon excitation of the Eu (donor). Displacement of tracer from the ATP-binding site by a test compound disturbs the proximity between both labels thus lowering the FRET.
This time resolved-FRET binding assay was performed in white 384-well low volume plates (Greiner, cat #784075), at room temperature in kinase buffer A (KBA; Invitrogen cat # PV3189), consisting of 50 mM HEPES-NaOH (pH 7.5), 0.01% Brij-35, 10 mM MgCl2, and 1 mM EGTA. 5 μl of compound (diluted in reaction buffer, to 1% DMSO) were added to various wells in the plate, followed by 5 μl each of recombinant human PMYT-1 (full length PMYT-1 was expressed by baculovirus in insect cells using a N-terminal GST tag (MW: 80.8 kDa) (Invitrogen cat #A30984) and LanthaScreen Eu-anti-GST antibody (Invitrogen, cat #PV5594). After this, 5 μl of kinase tracer 178 (Invitrogen, cat #PV5593) was added to the plate and the plate was incubated for 60 minutes at room temperature. The final assay conditions in each well were: 3 nM tracer 178, 2.5 nM PMYT-1 and 1 nM Eu-labeled antibody in total assay volume of 15 μl. An Envision 2104 (Perkin-Elmer) Plate Reader with the following time-resolve fluorescence setting was used for performing LanthaScreen kinase binding assay. • Excitation 320 nm (30 nm bandpass) • Kinase Tracer Emission 665 nm (10 nm bandpass) • LanthaScreen Eu-anti-Tag Antibody Emission 615 nm (10 nm bandpass) • Dichroic Mirror Instrument dependent • Delay Time 100 μs • Integration Time 200 μs
To calculate the emission ratio, the acceptor/tracer emission ([…]) was divided by the antibody/donor emission ([…]) and the average of duplicate measurement was used for calculations. Data plotting, analysis of binding, and curve fitting was done using Excel add-in XLfit version 5.5.0.5 (IDBS, Guildford, United Kingdom).

DAOY cells = assay: Cell Titer Glo viability assay; type: cell-based; settings: Homo sapiens, 144 hours, Cell Titer Glo 2.0
Procedure: (§1) DAOY medulloblastoma cell line (ATCC) was cultured in Minimum Essential Medium Eagle supplemented with 10% fetal calf serum (Sigma), 1% Penicillin-Streptomycin and 10 mM HEPES buffer (HyClone). Cell cultures were kept in a humidified incubator at 37° C. and 5% CO2. Cells were routinely tested for Mycoplasma contamination.
DAOY cells were seeded at a density of 250 cells per well in tissue culture 384 well plates (Corning Costar). After overnight incubation, cells were incubated with test compounds at concentrations ranging from 0.17 to 10,000 nM. Viability compared to untreated control was assessed at 144 hours using Cell Titer Glo® 2.0 Viability Assay (Promega).

[2] = Oral bioavailability study in mice; type: in vivo; settings: female CD-1 mice, single IV bolus 1 mg/kg vs oral gavage 3 mg/kg, dose normalized AUC0-∞
Procedure: We compared the oral bioavailability of Compound 75:
(Compound A), which has a thiazolyl moiety in place of the furanyl moiety in Compound 75. Female CD-1 mice treated with a single intravenous bolus (IV; 1 mg/kg) or oral gavage (PO; 3 mg/kg) of one of the compounds. The percent bioavailability (% F) was calculated by dividing the dose normalized area under the plasma concentration curve (AUC0-∞) by the dose normalized IV plasma AUC0-∞.

Myt1 Kinase = target: T2, Myt1 Kinase (Homo sapiens, UniProt Q99640); assay: AlphaLISA SureFire Ultra Human Phospho-CDK1 (Thr14) target engagement assay in DAOY cells; type: cell-based; settings: 4 h incubation, Cdk1 phosphorylated on threonine 14, read-out: TE Myt1 Kinase (AlphaLISA)
T2 construct: endogenous in cells; host or cells: DAOY medulloblastoma cells (ATCC)
T2 sequence (Q99640 1-499): T1 sequence (Q99640 1-499)
Procedure: The following cellular assay was used to determine the extent to which the compounds disclosed herein inhibit phosphorylation of CDK1 at Thr 14.
as §1
For target engagement assessment, quantification of Cdk1 phosphorylated on threonine 14 was detected using the AlphaLISA® SureFire® Ultra™ Human Phospho-CDK1 (Thr14) assay (Perkin Elmer). DAOY cells were seeded into tissue culture 96-well plates (VWR) to a density of 10,000 cells per well. Twenty-four hours post-seeding cells were incubated for 4 h with test compounds at concentrations ranging from 7 to 5000 nM. Cells were washed with PBS and lysed in 50 μl AlphaLISA® lysis buffer before freezing at −80° C. Ten μl of the lysate was transferred to 384 well plates and incubated with AlphaLISA® donor and acceptor beads according to the manufacturer's instructions. Dose response curves and EC50 values were calculated and visualized using GraphPad Prism version 9.

| Structure (SMILES) | IC50 [1] [nM] | EC50 (DAOY cells) [nM] | Bioavailability (% F) [2] [% F] | EC50 (Myt1 Kinase) [nM] |
| --- | --- | --- | --- | --- |
| Cc1ccc(O)c(C)c1-n1nc(-c2ccco2)c(C(N)=O)c1N [Compound 75, 5-amino-3-(2-furyl)-1-(3-hydroxy-2,6-xylyl)-4-pyrazolecarboxamide] | ≤ 10 | ≤ 500 | 64 | ≤ 250 |
| C=C(C)c1coc(-c2nn(-c3c(C)ccc(O)c3C)c(N)c2C(N)=O)c1 [Compound 97, 5-amino-1-(3-hydroxy-2,6-xylyl)-3-(4-isopropenyl-2-furyl)-4-pyrazolecarboxamide] | ≤ 10 | ≤ 500 |  | ≤ 250 |
| Cc1ccc(O)c(C)c1-n1nc(-c2cc(-c3ccccn3)co2)c(C(N)=O)c1N [Compound 98, 5-amino-1-(3-hydroxy-2,6-xylyl)-3-[4-(2-pyridyl)-2-furyl]-4-pyrazolecarboxamide] | ≤ 10 | ≤ 500 |  | ≤ 250 |
| Cc1ccc(O)c(C)c1-n1nc(-c2ccc(-c3ccncc3)o2)c(C(N)=O)c1N [Compound 99, 5-amino-1-(3-hydroxy-2,6-xylyl)-3-[5-(4-pyridyl)-2-furyl]-4-pyrazolecarboxamide] | ≤ 10 | > 1000 |  | ≤ 250 |
| Cc1ccc(O)c(C)c1-n1nc(-c2ccc(C#N)o2)c(C(N)=O)c1N [Compound 101, 5-amino-3-(5-cyano-2-furyl)-1-(3-hydroxy-2,6-xylyl)-4-pyrazolecarboxamide] | 10 to 100 | > 1000 |  | ≤ 250 |
| Cc1ccc(O)c(C)c1-n1nc(-c2cc(C(C)C)co2)c(C(N)=O)c1N [Compound 102, 5-amino-1-(3-hydroxy-2,6-xylyl)-3-(4-isopropyl-2-furyl)-4-pyrazolecarboxamide] | ≤ 10 | ≤ 500 |  | ≤ 250 |
| CC(C)=Cc1coc(-c2nn(-c3c(C)ccc(O)c3C)c(N)c2C(N)=O)c1 [Compound 108, 5-amino-1-(3-hydroxy-2,6-xylyl)-3-[4-(2-methyl-1-propenyl)-2-furyl]-4-pyrazolecarboxamide] | ≤ 10 | 500 to 1000 |  | ≤ 250 |
| Cc1ccc(O)c(C)c1-n1nc(-c2cc(C3CC3)co2)c(C(N)=O)c1N [Compound 111, 5-amino-3-(4-cyclopropyl-2-furyl)-1-(3-hydroxy-2,6-xylyl)-4-pyrazolecarboxamide] | 10 to 100 | 500 to 1000 |  | ≤ 250 |
| C/C=C/c1coc(-c2nn(-c3c(C)ccc(O)c3C)c(N)c2C(N)=O)c1 [Compound 112, 3-{4-[(E)-1-propenyl]-2-furyl}-5-amino-1-(3-hydroxy-2,6-xylyl)-4-pyrazolecarboxamide] | ≤ 10 | 500 to 1000 |  | ≤ 250 |
| Cc1ccc(O)c(C)c1-n1nc(-c2cc(C#CC(C)(C)O)co2)c(C(N)=O)c1N [Compound 113, 5-amino-3-[4-(3-hydroxy-3-methyl-1-butynyl)-2-furyl]-1-(3-hydroxy-2,6-xylyl)-4-pyrazolecarboxamide] | 10 to 100 | > 1000 |  | 250 to 500 |
| CC#Cc1coc(-c2nn(-c3c(C)ccc(O)c3C)c(N)c2C(N)=O)c1 [Compound 114, 5-amino-1-(3-hydroxy-2,6-xylyl)-3-[4-(1-propynyl)-2-furyl]-4-pyrazolecarboxamide] | ≤ 10 | 500 to 1000 |  | ≤ 250 |
| COc1ccc2oc(-c3nn(-c4c(C)ccc(O)c4C)c(N)c3C(N)=O)cc2c1 [Compound 115, 5-amino-1-(3-hydroxy-2,6-dimethylphenyl)-3-(5-methoxybenzofuran-2-yl)-1H-pyrazole-4-carboxamide] | ≤ 10 | 500 to 1000 |  | ≤ 250 |
| Cc1ccc(O)c(C)c1-n1nc(-c2cccs2)c(C(N)=O)c1N [Compound 119] | ≤ 10 | 500 to 1000 |  | ≤ 250 |
| Cc1ccc(O)c(C)c1-n1nc(-c2nccs2)c(C(N)=O)c1N [Compound 122] | ≤ 10 | ≤ 500 | 32 | ≤ 250 |
| Cc1ccc(O)c(C)c1-n1nc(-c2ncco2)c(C(N)=O)c1N [Compound 123] | ≤ 10 | 500 to 1000 |  | ≤ 250 |
